Source: patent US20060062859A1, “Composition and method to optimize and customize nutritional supplement formulations by measuring genetic and metabolomic contributing factors to disease diagnosis, stratification, prognosis, metabolism, and therapeutic outcomes” (priority 2004, published 2006)
Like-named read-outs stand apart in the source and are kept apart here.

Key:
[1] = test system: lipolysis; conditions: p <0.01; cited from earlier work
[2] = cited from earlier work
[3] = test system: opioid receptor; conditions: intra-VTA infusions; cited from earlier work
[4] = nucleus accumbens microinjections; cited from earlier work
[5] = people with RA; cited from earlier work
[6] = after six months; cited from earlier work
[7] = cited from earlier work; remark: listed apart in the source
[8] = Chromium picolinate vs placebo in obese subjects genotyped for DRD2 (scale weight, DEXA body fat); type: in vivo, human; conditions: for change in fat weight, body weight, percent change in weight, body weight change in kg: A2/A2 carriers; for any parameter of weight change: subjects possessing a DRD2 A1 allele (A1/A1 or A1/A2)
Experimental: A Case Study: Chromium and Dopamine Genes. While there is still controversy regarding the effects of chromium salts (picolinate and nicotinate) on body composition and weight loss in general, recent work seems to support the positive change in body composition in humans. The inventors embarked on a study with chromium picolinate to test out the principles of nutrigenomics. In this study they genotyped obese subjects for the dopamine D2 receptors gene (DRD2). The subjects were assessed for scale weight and for percent body fat. The subjects were divided into matched placebo and chromium picolinate (CrP) groups. […] Moreover, the inventors propose for the first time that mixed effects now observed with CrP administration in terms of body composition, may be resolved by typing the patient via DRD2 genotyping prior to treatment with chromium salts.
To reiterate, Blum and associates found similar evidence with chromium picolinate, for the role of genes in physiological response with nutritional supplements. While there still is controversy regarding the effects of chromium salts (picolinate and nicotinate) on body composition and weight loss in general, recent unpublished work seems to support the positive change in body composition in humans. In consideration of the above study, Chen and Blum and others decided to genotype 130 overweight subjects for the dopamine D2 receptor gene. The subjects were assessed for scale weight and for percent body fat using dual energy X-ray absorptionmetry (DEXA R). The subjects were divided into matched placebo and chromium picolinate groups (400 μg. per day). The sample was separated into two independent groups; those with either an A1/A1 or A1/A2 allele and those with only the A2/A2 pattern. […] Moreover, we propose for the first time that mixed effects now observed with chromium picolinate in terms of body composition, may be resolved by typing the patient via dopamine D2 receptor genotyping prior to treatment with not only chromium salts, but with other nutritional supplements as well.
In terms of weight loss ingredients one nutrient Chromium Picolinate, one of the most widely used ingredient in the weight management field, pharmacogenomically responds differentially based on the DRD2genotype. Dr. Blum is current in revision on a publication detailing these findings. Here are some details on the abstract: • Thomas J H Chen, Kenneth Blum, * Gilbert Kaats, E. R. Braverman. Arthur Eisenberg, M. Sherman. K. Davis, D E Comings, R. Wood, D. Pullin. CHROMIUM PICOLINATE A PUTATIVE ANTI-OBESITY NUTRIENT INDUCES CHANGES IN BODY COMPOSITION AS A FUNCTION OF THE Taq1 DOPAMINE D2 RECEPTOR POLYMORPHISMS. International J. Of Eating Disorders (in revision). • Objective: There is still controversy regarding the effects of chromium salts (picolinate and nicotinate) on body composition and weight loss in humans. Thus, we decided to test the hypothesis that typing the obese patients by genotyping the DRD2 gene prior to treatment with Chromium Picolinate (CrP) would result in a differential treatment outcome. • Methods: We genotyped obese subjects for the dopamine D2 receptors gene (DRD2) utilizing standard PCR techniques. The subjects were assessed for scale weight and for percent body fat using dual energy X-ray absorptiometry (DEXAR). The subjects were divided into matched placebo and CrP groups (400 ug. per day) accordingly. The sample was separated into two independent groups. Those with either an A1/A1 or A1/A2 allele or those with only the A2/A2 allelic pattern.

[9] = 400 mcg, cited from earlier work
[10] = 200 and 400 mcg, cited from earlier work
[11] = HCA 440 mg t.i.d. eight weeks (Thom); set-up: species or system human; conditions: in vivo
Experimental: The Thom study indicates a dosage level of 440 mg of HCA (as opposed to GcE) t.i.d. (1320 mg/day) for eight weeks. […] The mean “weight loss” in the HCA group was 6.4 kg, 1.68 times greater than placebo. […] The GcE was taken in conjunction with 1200 mg L-Carnitine and 600 mcg chromium (from picolinate) and compared to placebo in 186 subjects (200 began the study) for 4 weeks. All participants were supposed to engage in an exercise regimen calibrated to personal needs. Loss of body fat in the treatment group averaged 1.29 kg compared to 0.64 kg in the placebo ([…]. The Girola study investigated the effects of chitosan, combined with a low amount of GcE, making a comparative evaluation impossible. In fact, variables in the studies noted, and others not mentioned, make conclusions about the efficacy of GcE for “weight loss” extremely difficult.

[12] = target: T1, ATP-citrate lyase (Homo sapiens, UniProt P53396); conditions: cited from earlier work
T1 sequence (P53396 1-1101): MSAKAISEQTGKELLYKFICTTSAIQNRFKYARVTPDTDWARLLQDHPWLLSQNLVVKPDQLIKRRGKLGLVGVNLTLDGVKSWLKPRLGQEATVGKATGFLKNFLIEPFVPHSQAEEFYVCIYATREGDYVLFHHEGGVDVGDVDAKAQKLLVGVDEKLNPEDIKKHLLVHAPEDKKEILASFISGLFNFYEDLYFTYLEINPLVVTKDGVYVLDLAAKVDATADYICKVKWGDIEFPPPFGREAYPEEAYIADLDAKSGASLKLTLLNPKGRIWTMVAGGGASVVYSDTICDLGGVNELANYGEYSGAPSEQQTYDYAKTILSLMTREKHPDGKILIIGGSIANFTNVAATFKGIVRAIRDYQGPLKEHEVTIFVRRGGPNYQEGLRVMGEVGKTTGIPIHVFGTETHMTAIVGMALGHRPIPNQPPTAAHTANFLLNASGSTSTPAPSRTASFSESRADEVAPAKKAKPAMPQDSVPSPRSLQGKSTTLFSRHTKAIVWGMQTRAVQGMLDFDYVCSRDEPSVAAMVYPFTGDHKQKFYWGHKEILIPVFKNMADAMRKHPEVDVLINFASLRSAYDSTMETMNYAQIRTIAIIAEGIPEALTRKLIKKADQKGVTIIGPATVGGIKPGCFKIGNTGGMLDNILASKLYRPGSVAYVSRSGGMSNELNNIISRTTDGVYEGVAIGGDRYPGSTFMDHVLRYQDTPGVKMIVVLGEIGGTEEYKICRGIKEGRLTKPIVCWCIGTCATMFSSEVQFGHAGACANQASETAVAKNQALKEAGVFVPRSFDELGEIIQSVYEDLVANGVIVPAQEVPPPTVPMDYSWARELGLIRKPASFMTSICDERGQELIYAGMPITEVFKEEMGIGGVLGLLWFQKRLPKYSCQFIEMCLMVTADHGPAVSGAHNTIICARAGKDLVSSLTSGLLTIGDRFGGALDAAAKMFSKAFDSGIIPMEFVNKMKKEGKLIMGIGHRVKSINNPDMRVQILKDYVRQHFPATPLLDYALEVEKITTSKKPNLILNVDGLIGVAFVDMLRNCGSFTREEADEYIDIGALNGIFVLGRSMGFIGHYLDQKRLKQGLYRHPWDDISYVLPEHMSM

[13] = 2 g of HCA; fasting and fed subjects; cited from earlier work
[14] = in vivo; cited from earlier work
[15] = 1320 mg/day, eight weeks, 1200 kcal/day; cited from earlier work
[16] = 3.0 g/day for 3 days; fasting state, rest or moderate exercise; cited from earlier work
[17] = 2 weeks; cited from earlier work
[18] = injections; cited from earlier work

For `C[C@]12CCC(=O)C=C1CC[C@@H]1[C@@H]2[C@@H](O)C[C@@]2(C)[C@H]1CC[C@]2(O)C(=O)CO` [cortisol], the “basal rate of lipolysis” value [1] is listed as “significantly reduced”.
For `O=C1CC[C@@]2(O)[C@H]3Cc4ccc(O)c5c4[C@@]2(CCN3CC2CC2)[C@H]1O5` [Naltrexone], the body weight ([2]; anorexic patients) is given as “weight gain”, the binge-eating ([2]; bulimics) is given as “some reduction” and the “stress-induced activation of dopamine metabolism in the NAcc and prefrontal cortex” value [3] is given as “prevent”.
For `C[C@H](NC(=O)[C@@H](CC(=O)NO)Cc1ccccc1)C(=O)O` [kelatrophan], the intracranial self-stimulation [4] is given as “reduced”.
For `CCCCC/C=C\C/C=C\C/C=C\CCCCC(=O)O` [GLA, GAMMA-LINOLENIC ACID], the RA symptoms [5] is listed as “significant improvements”.
For Chromium Picolinate, the lean body mass [6] is listed as “After six months the CrP group had an increase in lean”, the “insulin response to an oral glucose load” value ([7]; exercise training combined with supplementation) is listed as “lowered insulin response to an oral glucose load” and the body weight ([7]; supplementation alone) is listed as “CrP supplementation resulted in significant weight gain,”. For the same compound, the “change in fat weight, body weight, percent change in weight, body weight change in kg” value [8] was “changes in kgms were all significant in A2/A2 group,”, the “change in fat weight, body weight, percent change in weight, body weight change in kg” value ([8]; listed as CrP) was “significant in A2/A2 group and non” and the “change in fat weight, body weight, percent change in weight, body weight change in kg” value ([8]; listed as chromium picolinate) was “all significant”. The “any parameter of weight change” value [8] was “no significance was found”, the “any parameter of weight change” value ([8]; listed as CRP) was “do not respond” and the “any parameter of weight change” value ([8]; listed as CrP) was “no significance was found”. For the same compound, the “reduction in body fat vs placebo” value ([9]; p < 0.001) was “(p < 0.001) and body fat (p < 0.004), had a greater”, the “weight lost vs placebo” value ([9]; p < 0.001) was 400 mcg CrP group lost significantly more weight and the body composition ([9]; p < 0.004) was “reduction in body fat (p < 0.001), significantly improve”. For the same compound, the “changes in Body Mass composition indicies compared with placebo” value [10] was 200 and 400 mcg of CrP brought about significant and the “changes in Body Mass composition indicies compared with placebo” value ([10]; listed as chromium picolinate) was “body composition improvement, loss of body fat, gain in nonfat mass”.
For `O=C(O)CC(O)(C(=O)O)C(O)C(=O)O` (stereo not drawn) [HCA, (−)—Hydroxycitric acid], the “weight loss relative to placebo” value [11] is given as 1.68 times greater than placebo, the “inhibition of ATP-citrate lyase” value [12] is given as “competitively inhibit” and the “inhibition of ATP-citrate lyase” value ([12]; listed as FCA) is given as “competitive inhibitor”. For the same compound, the “time to peak plasma levels” value [13] was “approximately 2 hours”, the satiety [14] was “no observable effects” and the mean weight loss [15] was 6.4 kg. For the same compound, the “short-term rate of fat oxidation” value [16] was “did not alter” and the “satiety and energy intake compared to placebo” value [17] was “did not increase satiety or effect energy intake”.
For `NC(Cc1ccc(Cl)cc1)C(=O)O` (centres unmarked) [Para-Chlora-Phenylalanine (PCA), Para-Chlora-Phenylalanine], the induction of stress [18] is listed as “attenuated”.
